{"source": "patent US20060276440A1", "about": "“Treatment of inflammatory disorders” (priority 2005, published 2006)", "key": {"IL-1 pathway": {"tested_on": "IL-1 pathway", "experiment": "4A1 Sentinel line IL-1-stimulated luciferase reporter assay", "format": "cell-based", "settings": "Homo sapiens; 4A1 cells", "method": "Reporter activities of Sentinel® clones were measured using the Steady-Glo® Luciferase assay system (Promega, Madison, Wis.), according to the manufacturer's instructions, and were normalized to cell numbers based on nucleic acid quantification (CyQuant® cell proliferations assay, Molecular Probes/Invitrogen, Carlsbad, Calif.). In order to identify potential anti-inflammatory compounds, the OSM-responding Sentinel® clone 4A1 was used for a library screen of approximately 1800 compounds.\nSentinel lines were developed by utilizing promoter trapping technology in combination with positive and negative selections to efficiently deliver reporter genes into endogenously regulated genetic sites. Using this approach, a Sentinel cell line, 4A1, in A549 lung carcinoma cells that responded specifically to OSM and IL-1 stimulation among a panel of cytokines and active compounds was established (FIG. 9A).\nTo identify compounds that inhibit OSM signaling, the collection of approximately 1800 compounds was screened using the 4A1 Sentinel line."}, "MMP-13": {"tested_on": "MMP-13", "experiment": "IL-1-stimulated pro-MMP-13 production in SW1353 cells (ELISA)", "format": "cell-based", "settings": "Homo sapiens, IL-1 alone", "method": "For matrix metalloproteinase (MMP) measures, SW1353 cells were grown to confluence in 24 well plates, washed in DMEM (with Ham's F12) and placed in 500 ul of serum free DMEM/F-12 with 0.2% lactalbumin hydrosylate with and without OsM/IL-1. After 24 hrs, supernatants were collected and the amounts of proMMP13, totalMMP2, and proMMP1 were measured using Quantikine® ELISA kit for human MMPs (R & D systems, Minneapolis, Minn.). All MMP measures were normalized to viable cell numbers based on a tetrazolium (MTS) colorimetric measure (Promega, Madison, Wis.).\nThe human chondrosarcoma cell line, SW1353, was used as the cell system for examining CA4's effect on OSM- and IL-1-mediated signal transduction. […] Therefore, MMP-13 was used as a surrogate marker of CA4 effects on OSM and IL-1 signaling in SW1353 cells. […] This observation is in agreement with that obtained with the 4A1 Sentinel® reporter line."}, "TGF-β": {"tested_on": "TGF-β", "experiment": "A549 Sentinel line TGF-β-stimulated reporter activity", "format": "cell-based, human", "settings": "as high as 1 μM; data not shown", "method": "Multiple control assays were performed to investigate the selectivity of CA4 action. Matrix metalloproteinase-2 (MMP-2) production in SW1353 cells was tested. Mutation of MMP-2 causes a multicentric osteolysis and arthritis syndrome (Martignetti et al., Nat Genet 28, 261-265 (2001) the entire contents of which are incorporated herein by reference), and theoretically its expression should not be affected in treating RA. CA4 at approximately 110 nM had no effect on production of MMP-2 (FIG. 12E). An A549 Sentinel line that responded to TGF-β was then tested."}, "p38, JNK, ERK1/2": {"tested_on": "p38, JNK, ERK1/2", "experiment": "p38, JNK, ERK1/2 phosphorylation in SW1353 cells (FACS, immunostaining)", "format": "cell-based, human", "method": "SW1353 cells were seeded and treated as described above. For the flow cytometric analysis of intracellular phopho-proteins, trypsinized SW1353 cells were fixed in 1.5% formaldehyde at room temperature (RT), and permeabilized in ice cold methanol for minimum of 10 minutes. After 2× wash in wash buffer (D-PBS, with 1% FBS), cells were stained with phospho-specific antibodies (5 ug/ml final) for 20 minutes, washed 2× in wash buffer, followed by 20 minutes incubation with phycoerythrin-conjugated anti-mouse IgG (10 ug/ml final). Following 2× wash in wash buffer, cells were analyzed by flow cytometry.\nFor immunohistochemistry of intracellular phospho-proteins, fixation and permeabilization conditions were identical to the ones used for flow cytometric analysis. For the visualization of the phosphor-specific proteins, ImmPRESS Universal Antibody kit (Vector Laboratories, Burlingame, Calif.) was used.\nThe cellular and molecular mechanisms by which CA4 repressed pro-MMP-13 production, using SW1353 as the model system were investigated. […] The pathways that mediate OSM and IL-1 signal transduction were then examined. Using inhibitors that target key components of the pathways, it was shown that JAK/STAT, p38, JNK, and NF-κB pathways were important for OSM/IL-1-stimulated pro-MMP-13 production (FIG. 13B-E), but not ERK or Cox1/2 pathways (data not shown). […]"}, "[1]": {"experiment": "Plasma concentration of CA4 from osmotic pump by LC/MS", "format": "in vivo, mouse", "settings": "33 mg/ml dose by the pump (16 mg/kg/day), day 3 and 7", "method": "CA4 at 50, 33, and 0 (vehicle) mg/ml in osmotic pumps (0.5 ul/hr; equivalent to 25, 16 and 0 mg/kg/day) was administered subcutaneously to murine collagen-induced arthritis model usin ghte B10RIII strain 12 days after the 1st immunization (day 0) of type II collagen. The 33 mg/ml dose by the pump produced a plasma concentration of CA4 of approximately 30 nM on day 3 and 7 as measured by LC/MS. Dexamethasone at 0.2 mg/kg was injected daily subcutaneously as a positive control."}, "[2]": {"settings": "Kirwan et al. 2004; cited from earlier work"}}, "data": [{"smiles": "COc1ccc(/C=C\\c2cc(OC)c(OC)c(OC)c2)cc1O", "note": "[Combretastatin A4 (1), (Z)-5-(3,4,5-trimethoxystyryl)-2-methoxyphenol]", "values": [{"measurement": "IC50", "setting": "IL-1 pathway", "value": "6.9 ± 0.4", "unit": "nM"}, {"measurement": "IC50", "setting": "MMP-13", "value": "5.2 ± 1.9", "unit": "nM"}, {"measurement": "effect on TGF-β-stimulated reporter activity", "setting": "TGF-β", "value": "no effect"}, {"measurement": "p38 or JNK phosphorylation", "setting": "p38, JNK, ERK1/2; 20 nM, FACS or immunostaining", "value": "Nor was p38 or JNK phosphorylation affected"}, {"measurement": "JNK (pT183/pY185) and ERK1/2 (pT202/pY204) phosphorylation", "setting": "p38, JNK, ERK1/2; CA4 (20 nM) 2 hrs pretreatment, IL-1/OSM 15 minutes, data not shown", "value": "not affected"}, {"measurement": "plasma concentration", "setting": "[1]", "value": "approximately 30 nM"}, {"measurement": "half time in mouse plasma", "setting": "[2]", "value": "approximately 0.5 hour"}]}]}
